In data set [1] the test system is K562/Adr. Kind of data set: Potency index, ratio of podophyllotoxin IC50 to compound IC50 for human K562/ADR cells. It is filed as functional.
Data set [2] deals with K562/Adr. Kind of data set: Induction of apoptosis in human K562/ADR cells assessed as live cells at 0.05 uM after 48 hrs by Annexin V-APC/7-AAD staining based flow cytometry (reference value: 91.65%). It is filed as functional.
Data set [3] concerns K562/Adr. Kind of data set: Induction of apoptosis in human K562/ADR cells assessed as early apoptotic cells at 0.05 uM after 48 hrs by Annexin V-APC/7-AAD staining based flow cytometry (reference value: 1.99%). The data set is classed as functional.
Data set [4] concerns K562/Adr. Kind of data set: Induction of apoptosis in human K562/ADR cells assessed as chromatin condensation at 0.05 to 0.1 uM after 48 hrs by Hoechst 33342 staining based fluorescent microscopic analysis. It is filed as functional, cell-based.
Data set [5] has as its target T1, Mitogen-activated protein kinase; ERK1/ERK2 (Homo sapiens) (UniProt P27361+P28482). Kind of data set: Induction of ERK1/2 phosphorylation in human K562/ADR cells at 0.05 uM after 48 hrs by Western blot analysis relative to control. The data set is classed as cell-based.
Data set [6] deals with K562/Adr. Kind of data set: Effect on total ERK1/2 protein expression level in human K562/ADR cells at 0.1 uM after 48 hrs by Western blot analysis relative to control. It is filed as ADME, cell-based.
Data set [7] has as its target T1, Mitogen-activated protein kinase; ERK1/ERK2 (Homo sapiens). Kind of data set: Activation of ERK1/2 signalling in human K562/ADR cells assessed as suppression of CDK1 protein expression at 0.1 uM after 48 hrs by Western blot analysis relative to control. It is filed as cell-based.
The target is the same in data set [8]. As to the kind of experiment: Activation of ERK1/2 signalling in human K562/ADR cells assessed as increase in cleaved caspase-8 expression at 0.05 uM after 48 hrs by Western blot analysis relative to control. It is filed as cell-based.
For data set [9] the target is unchanged. Kind of data set: Activation of ERK1/2 signalling in human K562/ADR cells assessed as increase in cleaved caspase-9 expression at 0.1 uM after 48 hrs in presence of ERK1/2 inhibitor U0126 by Western blot analysis relative to control. It is filed as cell-based.

Structures are written as SMILES. Calls of active or inactive are those of the source. The calls are words filed in the database; no cut-off is given here.

T1 sequence (P27361 whole entry, looked up): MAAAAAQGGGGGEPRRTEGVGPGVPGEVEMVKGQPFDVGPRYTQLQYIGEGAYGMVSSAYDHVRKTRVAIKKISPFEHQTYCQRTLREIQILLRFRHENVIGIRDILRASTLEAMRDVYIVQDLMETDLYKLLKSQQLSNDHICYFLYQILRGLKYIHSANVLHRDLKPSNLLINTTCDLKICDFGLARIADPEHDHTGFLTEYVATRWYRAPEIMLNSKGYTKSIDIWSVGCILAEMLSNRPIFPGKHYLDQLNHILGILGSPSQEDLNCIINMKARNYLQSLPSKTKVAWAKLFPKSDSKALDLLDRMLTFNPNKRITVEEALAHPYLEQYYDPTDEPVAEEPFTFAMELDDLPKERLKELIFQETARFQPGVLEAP
T1 sequence (P28482 whole entry, looked up): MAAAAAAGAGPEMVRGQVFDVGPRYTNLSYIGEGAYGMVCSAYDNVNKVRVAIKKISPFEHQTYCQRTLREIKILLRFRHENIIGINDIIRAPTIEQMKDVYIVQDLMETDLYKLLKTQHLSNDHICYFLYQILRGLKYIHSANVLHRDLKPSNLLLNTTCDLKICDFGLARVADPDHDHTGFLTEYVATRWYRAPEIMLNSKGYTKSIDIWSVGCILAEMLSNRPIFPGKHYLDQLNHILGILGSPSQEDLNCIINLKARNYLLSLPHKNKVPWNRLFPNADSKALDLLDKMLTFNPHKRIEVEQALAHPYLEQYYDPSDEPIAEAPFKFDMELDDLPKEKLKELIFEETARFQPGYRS

Turning to `COc1cc([C@@H]2c3cc4c(cc3[C@H](OC(=O)c3cccc(Br)n3)[C@H]3COC(=O)[C@H]23)OCO4)cc(OC)c1OC`, the “Ratio IC50” value with K562/Adr [1] is reported as 0.54. Also, the Activity in the data set on K562/Adr [2] is 67.37%; in the data set on K562/Adr [3], 7.42%. The outcome with K562/Adr [4] was Active. In addition, the fold change (FC) came to 0.32 in data set [5]; 0.89 with K562/Adr [6]; 0.46 in [7]; 0.38 in [8]; 0.59 in data set [9].

For the origin of these results see ChEMBL document CHEMBL4477261, “Design, synthesis and evaluation of the multidrug resistance-reversing activity of pyridine acid esters of podophyllotoxin in human leukemia cells” (Bioorg Med Chem Lett, 2016).
